Measured values reported in PubChem BioAssay AID206 (DTP/NCI, 2004).
Where “and” joins values, the source holds several entries; their conditions need not be identical. Equal values may be shown once. Inconclusive results are not listed.

System: nude mice, HT29 intrarenal xenograft, tumor weight T/C
Assay: NCI In Vivo Anticancer Drug Screen. Data for tumor model HT29;CX-1 Human Adenocarcinoma (MER+) (intrarenal inoculation) in NU/NU Swiss (nude) mice
Details: endpoint: mean tumor weight change, higher = larger tumour
Procedure, shortened: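 Compounds were given to mice carrying transplantable tumors; a vehicle-dosed group served as control. The endpoint measured in each group was compared as a T/C quotient.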

[1] = dose: 25.0 mg/kg/injection, schedule: Q04DX004 (sc), vehicle: saline
[2] = dose: 50.0 mg/kg/injection, schedule: Q04DX004 (sc), vehicle: saline
[3] = dose: 100.0 mg/kg/injection, schedule: Q04DX004 (sc), vehicle: saline

Structure (SMILES): CC(=O)C(=O)O.CC(=O)C(=O)O.[NH-]C1CCCCC1[NH-].[Pt+2] (stereo not drawn)
- T/C (dose: 15.0 mg/kg/injection, schedule: Q04DX004 (sc), vehicle: other): 64 % of control
- T/C (dose: 30.0 mg/kg/injection, schedule: Q04DX004 (sc), vehicle: other): 64 % of control
- T/C (dose: 60.0 mg/kg/injection, schedule: Q04DX004 (sc), vehicle: other): 47 % of control

Structure (SMILES): Brc1c(NC2=NCCN2)ccc2nccnc12
- T/C (dose: 12.5 mg/kg/injection, schedule: Q04DX004 (sc), vehicle: saline): 113 % of control
- T/C [1]: 92 % of control
- T/C [2]: 52 % of control
- T/C [3]: 93 % of control
- T/C (dose: 200.0 mg/kg/injection, schedule: Q04DX004 (sc), vehicle: saline): 91 % of control
- T/C (dose: 400.0 mg/kg/injection, schedule: Q04DX004 (sc), vehicle: saline): 79 % of control

Structure (SMILES): NC(=O)c1csc(C2OC(CO)C(O)C2O)n1 (stereo not drawn)
- T/C (dose: 125.0 mg/kg/injection, schedule: Q04DX004 (sc), vehicle: water): 119 % of control

Structure (SMILES): C1CN2CN3CCN(CN1C3)C2
- T/C (dose: 100.0 mg/kg/injection, schedule: Q01DX010 (sc), vehicle: saline): 93 % of control
- T/C (dose: 200.0 mg/kg/injection, schedule: Q01DX010 (sc), vehicle: saline): 95 % of control

Structure (SMILES): O=Cc1ccc(C(Cl)(Cl)Cl)cc1
- T/C (dose: 100.0 mg/kg/injection, schedule: Q01DX010 (sc), vehicle: saline with Tween-80): 121 % of control
- T/C (dose: 400.0 mg/kg/injection, schedule: Q01DX010 (sc), vehicle: saline with Tween-80): 107 % of control

Structure (SMILES): CCOC(=O)[C@]1(Br)CC[C@@]1(Br)C(=O)OCC
- T/C (dose: 400.0 mg/kg/injection, schedule: Q04DX004 (sc), vehicle: saline with Tween-80): 105 % of control
- T/C (dose: 800.0 mg/kg/injection, schedule: Q04DX004 (sc), vehicle: saline with Tween-80): 93 % of control
- T/C (dose: 1600.0 mg/kg/injection, schedule: Q04DX004 (sc), vehicle: saline with Tween-80): 43 % of control

Structure (SMILES): COc1cccc2c1C(=O)c1c(O)c3c(c(O)c1C2=O)C[C@@](O)(/C(C)=N\NC(=O)CO)C[C@@H]3OC1CC(N)C(O)C(C)O1 (stereo partly drawn)
- T/C (dose: 15.63 mg/kg/injection, schedule: Q04DX004 (sc), vehicle: saline): 52 % of control
- T/C (dose: 31.25 mg/kg/injection, schedule: Q04DX004 (sc), vehicle: saline): 16 % of control
- T/C (dose: 62.5 mg/kg/injection, schedule: Q04DX004 (sc), vehicle: saline): 18 % of control

Structure (SMILES): CNc1nc2c(N)ncnc2n1C1OC(CO)C(O)C1O (stereo not drawn)
- T/C [1]: 87 % of control

Structure (SMILES): CCC1CC2CN(CCc3c([nH]c4ccccc34)C(C(=O)OC)(c3cc4c(cc3OC)N(C)C3C(O)(C(=O)OC)C(OC(C)=O)C5(CC)C=CCN6CCC43C65)C2)C1 (stereo not drawn)
- T/C (dose: 1.0 mg/kg/injection, schedule: Q04DX004 (sc), vehicle: saline): 209 % of control
- T/C (dose: 2.0 mg/kg/injection, schedule: Q04DX004 (sc), vehicle: saline): 164 % of control
- T/C (dose: 4.0 mg/kg/injection, schedule: Q04DX004 (sc), vehicle: saline): 58 % of control
- T/C (dose: 8.0 mg/kg/injection, schedule: Q04DX004 (sc), vehicle: saline): 68 % of control

Structure (SMILES): CCN=C=NCCCN(C)C
- T/C [1]: 90 % of control
- T/C [2]: 78 % of control
- T/C [3]: 38 % of control

Structure (SMILES): [N-]=[N+]=CC(=O)CCC(=O)C=[N+]=[N-]
- T/C (dose: 36.0 mg/kg/injection, schedule: Q04DX004 (sc), vehicle: DMSO): 85 % of control and 99 % of control
- T/C (dose: 72.0 mg/kg/injection, schedule: Q04DX004 (sc), vehicle: DMSO): 79 % of control

Structure (SMILES): CC(=O)OCC1OC(n2ccc(N)nc2=O)C(OC(C)=O)C1OC(C)=O (stereo not drawn)
- T/C (dose: 300.0 mg/kg/injection, schedule: Q04DX004 (sc), vehicle: suspension in saline): 43 % of control
- T/C (dose: 600.0 mg/kg/injection, schedule: Q04DX004 (sc), vehicle: suspension in saline): 50 % of control
- T/C (dose: 1200.0 mg/kg/injection, schedule: Q04DX004 (sc), vehicle: suspension in saline): 43 % of control
- T/C (dose: 2400.0 mg/kg/injection, schedule: Q04DX004 (sc), vehicle: suspension in saline): 24 % of control

Structure (SMILES): C=CCOCC1CO1 (stereo not drawn)
- T/C (dose: 75.0 mg/kg/injection, schedule: Q04DX004 (sc), vehicle: saline): 120 % of control
- T/C (dose: 150.0 mg/kg/injection, schedule: Q04DX004 (sc), vehicle: saline): 100 % of control
- T/C (dose: 300.0 mg/kg/injection, schedule: Q04DX004 (sc), vehicle: saline): 54 % of control

Structure (SMILES): CN=S(=O)(OCCCCCOS(=O)(=NC)c1ccc(C)cc1)c1ccc(C)cc1 (stereo not drawn)
- T/C (dose: 150.0 mg/kg/injection, schedule: Q04DX004 (sc), vehicle: saline with Tween-80): 81 % of control
